Consider 15 molecules from paper PMC9217978, “Design, synthesis, in vitro α-glucosidase inhibition, docking, and molecular dynamics of new phthalimide-benzenesulfonamide hybrids for targeting type 2 diabetes” (Scientific Reports, 2022).

Like-named read-outs stand apart in the source and are kept apart here.

One data set concerns the target α-glucosidase. Conditions: read-out: IC50 against α-glucosidase, cited from earlier work.
The next data set deals with yeast α-glucosidase (Saccharomyces cerevisiae, UniProt P53341). Nature of the data set: biochemical. It is filed as biochemical. To be noted: for α-glucosidase inhibitory activity, in words: SAR discussion; for IC50: read-out: IC50 (μM), in vitro α-glucosidase inhibitory activity. An excerpt:
On the other hand, there are phenyl, 4-methylphenyl, and or 4-methoxyphenyl groups in the benzenesulfonamide moiety.

For the next data set, the target named is T1, α-amylase (Homo sapiens, UniProt P04746).
T1 sequence (P04746 16-511): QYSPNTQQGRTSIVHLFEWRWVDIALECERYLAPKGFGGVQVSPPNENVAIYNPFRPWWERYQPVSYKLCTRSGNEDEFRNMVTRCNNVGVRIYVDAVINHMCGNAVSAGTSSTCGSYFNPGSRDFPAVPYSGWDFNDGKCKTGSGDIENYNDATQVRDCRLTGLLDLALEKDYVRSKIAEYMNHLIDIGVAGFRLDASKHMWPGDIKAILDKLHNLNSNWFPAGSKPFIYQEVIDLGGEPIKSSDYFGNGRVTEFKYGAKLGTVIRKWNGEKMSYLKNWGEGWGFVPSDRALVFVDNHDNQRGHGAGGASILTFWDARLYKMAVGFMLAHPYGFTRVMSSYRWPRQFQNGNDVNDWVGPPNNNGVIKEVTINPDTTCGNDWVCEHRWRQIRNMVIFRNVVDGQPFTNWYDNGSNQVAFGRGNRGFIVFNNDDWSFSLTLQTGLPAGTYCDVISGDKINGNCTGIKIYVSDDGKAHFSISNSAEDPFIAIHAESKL
As to the kind of experiment: In vitro α-amylase inhibition assay. It counts as biochemical. Conditions: at 300 μM.

Sequence of yeast α-glucosidase (P53341 whole entry): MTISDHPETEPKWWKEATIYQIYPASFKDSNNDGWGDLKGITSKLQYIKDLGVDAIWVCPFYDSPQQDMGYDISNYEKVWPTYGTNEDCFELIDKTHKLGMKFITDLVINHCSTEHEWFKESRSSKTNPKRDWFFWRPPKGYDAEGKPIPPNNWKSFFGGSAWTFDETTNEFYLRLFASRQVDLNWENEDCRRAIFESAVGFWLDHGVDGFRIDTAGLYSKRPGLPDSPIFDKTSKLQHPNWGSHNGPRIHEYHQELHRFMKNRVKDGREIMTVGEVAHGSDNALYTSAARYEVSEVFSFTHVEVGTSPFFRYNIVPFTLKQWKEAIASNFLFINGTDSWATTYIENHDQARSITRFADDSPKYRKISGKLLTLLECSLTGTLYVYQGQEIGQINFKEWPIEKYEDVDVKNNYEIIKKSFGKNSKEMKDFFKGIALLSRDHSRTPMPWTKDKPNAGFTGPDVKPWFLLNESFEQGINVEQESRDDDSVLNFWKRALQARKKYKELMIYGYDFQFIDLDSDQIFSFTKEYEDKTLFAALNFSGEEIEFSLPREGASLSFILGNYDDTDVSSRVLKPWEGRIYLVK

Consider `O=C1c2ccccc2C(=O)N1CCCOc1ccc(Cl)c(Cl)c1` [A], for which the IC50 at α-glucosidase (Fig. 2, phthalimide derivative A study) was 7.55 µM.

As to `Cc1ccc(S(=O)(=O)Nc2ccc3c(c2)C(=O)N(CCOc2ccc(O)cc2)C3=O)cc1` [B], the IC50 at α-glucosidase (Fig. 2, phthalimide-benzenesulfonamid B study) was 25.5 µM. In the case of `O=C1c2ccccc2C(=O)N1CCC(=NS(=O)(=O)c1ccccc1)N1CCCCC1` [Compound 4a, N-(3-(1,3-Dioxoisoindolin-2-yl)-1-(piperidin-1-yl)propylidene)benzenesulfonamide], the melting point fell in the range of 158 to 160 °C. Also, the “α-glucosidase inhibitory activity, in words” value at yeast α-glucosidase was “inactive”. Molecule `Cc1ccc(S(=O)(=O)N=C(CCN2C(=O)c3ccccc3C2=O)N2CCCCC2)cc1` [Compound 4b, N-(3-(1,3-Dioxoisoindolin-2-yl)-1-(piperidin-1-yl)propylidene)-4-methylbenzenesulfonamide] registered a melting point of 198 to 200 °C. Moreover, on yeast α-glucosidase, the “α-glucosidase inhibitory activity, in words” value is “high inhibitory activity” and the IC50 was 127.24 ± 0.1 µM. Taken in the same sequence, the figures for `COc1ccc(S(=O)(=O)N=C(CCN2C(=O)c3ccccc3C2=O)N2CCCCC2)cc1` [Compound 4c, N-(3-(1,3-dioxoisoindolin-2-yl)-1-(piperidin-1-yl)propylidene)-4-methoxybenzenesulfonamide] were 146 to 148 °C, “good anti-α-glucosidase activity” and 200.29 ± 0.1 µM. The molecule `O=C1c2ccccc2C(=O)N1CCC(=NS(=O)(=O)c1ccccc1)N1CCOCC1` [Compound 4d, N-(3-(1,3-dioxoisoindolin-2-yl)-1-morpholinopropylidene)benzenesulfonamide] displayed a melting point of 168 to 170 °C. Besides, the “α-glucosidase inhibitory activity, in words” value on yeast α-glucosidase was “inactive”. In turn, `Cc1ccc(S(=O)(=O)N=C(CCN2C(=O)c3ccccc3C2=O)N2CCOCC2)cc1` [Compound 4e, N-(3-(1,3-Dioxoisoindolin-2-yl)-1-morpholinopropylidene)-4-methylbenzenesulfonamide] registered a melting point of 204 to 206 °C. Moreover, at yeast α-glucosidase, the “α-glucosidase inhibitory activity, in words” value was “high inhibitory activity” and the IC50 turned out to be 117 ± 0.14 µM. For the same molecule, the “inhibition effect against α-amylase” value on α-amylase is listed as “no inhibition effect”. The molecule `COc1ccc(S(=O)(=O)N=C(CCN2C(=O)c3ccccc3C2=O)N2CCOCC2)cc1` [Compound 4f, N-(3-(1,3-Dioxoisoindolin-2-yl)-1-morpholinopropylidene)-4-methoxybenzenesulfonamide] had a melting point of 172 to 174 °C. In turn, `O=C1c2ccccc2C(=O)N1CCC(=NS(=O)(=O)c1ccccc1)N(c1ccccc1)c1ccccc1` [Compound 4g, 3-(1,3-Dioxoisoindolin-2-yl)-N,N-diphenyl-N'-(phenylsulfonyl)propanimidamide] gave a melting point of 202 to 204 °C. Besides, on yeast α-glucosidase, the “α-glucosidase inhibitory activity, in words” value is given as “moderate inhibitory activity” and the IC50 was found to be 478 ± 0.07 µM. Taken in the same sequence, the figures for `Cc1ccc(S(=O)(=O)N=C(CCN2C(=O)c3ccccc3C2=O)N(c2ccccc2)c2ccccc2)cc1` [Compound 4h, 3-(1–3-Dioxoisoindolin-2-yl)-N,N-diphenyl-N’-tosylpropanimidamide] were 202 to 204 °C, “moderate α-glucosidase inhibitors” and 497 ± 0.25 µM. In the case of `O=C1c2ccccc2C(=O)N1CCC(=NS(=O)(=O)c1ccccc1)N1CCC(Cc2ccccc2)CC1` [Compound 4i, N-(1-(4-benzylpiperidin-1-yl)-3-(1,3-dioxoisoindolin-2-yl)propylidene)benzenesulfonamide], at yeast α-glucosidase, the “α-glucosidase inhibitory activity, in words” value was “high inhibitory activity” and the 50% inhibitory concentration (IC50) came out at 84.3 ± 0.4 µM. `COc1ccc(S(=O)(=O)N=C(CCN2C(=O)c3ccccc3C2=O)N2CCC(Cc3ccccc3)CC2)cc1` [Compound 4k]: the “α-glucosidase inhibitory activity, in words” value on yeast α-glucosidase is “inactive”.

The molecule `O=C1c2ccccc2C(=O)N1CCC(=NS(=O)(=O)c1ccccc1)N1CCN(c2ccccc2)CC1` [Compound 4l, N-(3-(1,3-dioxoisoindolin-2-yl)-1-(4-phenylpiperazin-1-yl)propylidene)benzenesulfonamide] returned a melting point of 160 to 164 °C.

On to `NS(=O)(=O)c1ccc(N/N=C/c2coc3ccccc3c2=O)cc1` [D], for which the IC50 at α-glucosidase (Fig. 2, chromone-benzenesulfonamid D study) is 20.1 µM.

For the molecule `O=C(N/N=C/c1ccc(OCCCN2C(=O)c3ccccc3C2=O)cc1)c1cc2ccccc2oc1=O` [E], the IC50 on α-glucosidase (Fig. 2, phthalimide-coumarin E study) is 85.2 µM.
